The target of data set [1] is T1, human LPA2 receptor (Homo sapiens, UniProt Q9HBW0). Description: Dynamic mass redistribution (DMR) assay in CHOLPA2 cells. As to conditions: for DMR effect per se / Agonism Emax / Agonism pEC50 / Shift of the concentration–response curve to LPA: CHOLPA2, DMR; for DMR effect per se: concentration–response up to highest concentration tested; for Agonism Emax / Agonism pEC50: negative DMR signal, peak, up to 10 µM (compound 35 up to 1 µM), °inactive at 10 μM; for DMR response: CHOLPA2 cells; for Shift of the concentration–response curve to LPA: antagonism protocol, 1 µM.
T1 sequence (Q9HBW0 whole entry): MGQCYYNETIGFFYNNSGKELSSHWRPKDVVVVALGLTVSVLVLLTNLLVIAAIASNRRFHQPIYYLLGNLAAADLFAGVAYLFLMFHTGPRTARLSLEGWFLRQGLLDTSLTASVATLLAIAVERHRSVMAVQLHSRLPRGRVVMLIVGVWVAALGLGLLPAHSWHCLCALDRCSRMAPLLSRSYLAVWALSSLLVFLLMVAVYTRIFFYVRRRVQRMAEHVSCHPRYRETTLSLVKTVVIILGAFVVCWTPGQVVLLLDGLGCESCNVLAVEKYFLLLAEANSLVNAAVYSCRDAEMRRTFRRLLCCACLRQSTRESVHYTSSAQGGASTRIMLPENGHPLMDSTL
Method: Confluent cells were sub-cultured using trypsin/EDTA and used for experiments. Cells were seeded at a density of 20,000 cells/well in 30 µL into fibronectin-coated EnspireTM-LC 384-well plates and cultured for 20 h to form a confluent monolayer. On the day of the experiment, the cells were manually washed twice and maintained with assay buffer (HBSS with 20 mM HEPES, 0.01% BSA) for 90 min before DMR experiments. DMR was monitored in real time with a temporal resolution of 44 s throughout the assay. Experiments were performed at 37°C using an EnSight Multimode Plate Reader (PerkinElmer). The agonism protocol was as follows: before addition of the ligand, the DMR signal was measured for 5 min, and the average of the signals recorded during this period was set as the baseline (pm = 0). Compounds are added manually in a volume of 10 µL, and the triggered DMR signals were recorded for 60 min. […] Responses were described in the form of picometer shift over time (seconds) following the subtraction of values from vehicle-treated wells. Maximum picometer (pm) modification (peak) and area under the curve (AUC) were used to determine the agonist response.
All data were analyzed using GraphPad Prism 9.4 (La Jolla, CA, United States). Concentration–response curves were fitted using the four-parameter log-logistic equation. Data are expressed in the form mean ± s.e.m. across n experiments performed in duplicate. […] In practice, equiactive concentrations of the agonist in the absence ([A]) and presence ([A’]) of a non-competitive antagonist ([B]) were compared in a double reciprocal plot describing a straight line, and pKB was derived from the equation: pKB = log[(slope—1)/[B]]. […] Maximal effect data were analyzed using the Student’s t-test or a one-way ANOVA followed by Dunnett’s post-hoc test.

On the set-up of data set [2]: method as in Palmer et al., 2018. As to conditions: patients with idiopathic pulmonary fibrosis, ref Palmer et al., 2018, cited from earlier work.
In data set [3] the target is T1, human LPA2 receptor. The data set is described as follows: Calcium mobilization assay in CHOLPA2 cells. As to conditions: CHOLPA2, calcium mobilization; for Effect per se / Shift of the concentration–response curve to LPA: 1 µM; for Effect per se: data not shown; for Agonism Emax / Agonism pEC50: #inactive at 1 μM; for Shift of the concentration–response curve to LPA: antagonism protocol. A general note: Calcium assays in cells follow changes in intracellular calcium, usually with a dye or a luminescent sensor.

Data set [4] deals with CHO wild-type cells. Description: DMR assay in CHO wild-type cells (control). Format: cell-based. As to conditions: for DMR response: CHO cells. On the procedure:
Confluent cells were sub-cultured using trypsin/EDTA and used for experiments. Cells were seeded at a density of 20,000 cells/well in 30 µL into fibronectin-coated EnspireTM-LC 384-well plates and cultured for 20 h to form a confluent monolayer. On the day of the experiment, the cells were manually washed twice and maintained with assay buffer (HBSS with 20 mM HEPES, 0.01% BSA) for 90 min before DMR experiments. DMR was monitored in real time with a temporal resolution of 44 s throughout the assay. Experiments were performed at 37°C using an EnSight Multimode Plate Reader (PerkinElmer). The agonism protocol was as follows: before addition of the ligand, the DMR signal was measured for 5 min, and the average of the signals recorded during this period was set as the baseline (pm = 0). Compounds are added manually in a volume of 10 µL, and the triggered DMR signals were recorded for 60 min. The antagonism protocol was as follows: antagonists were added manually 25 min before reading the 5 min baseline. […] Responses were described in the form of picometer shift over time (seconds) following the subtraction of values from vehicle-treated wells. Maximum picometer (pm) modification (peak) and area under the curve (AUC) were used to determine the agonist response.

A further data set concerns LPA1. More on the design: method as in Cheng et al., 2021. As to conditions: LPA1 antagonist, calcium mobilization; ref Cheng et al., 2021; cited from earlier work.
The target of data set [5] is T2, human LPA1 receptor (Homo sapiens, UniProt Q92633). The data set is described as follows: Dynamic mass redistribution (DMR) assay in CHOLPA1 cells. Particulars: for EC50: Agonism pEC50, CHOLPA1, DMR; for Shift of the concentration–response curve to LPA: antagonism protocol; for DMR response: CHOLPA1 cells; for Agonism Emax: negative DMR signal.
T2 sequence (Q92633 whole entry): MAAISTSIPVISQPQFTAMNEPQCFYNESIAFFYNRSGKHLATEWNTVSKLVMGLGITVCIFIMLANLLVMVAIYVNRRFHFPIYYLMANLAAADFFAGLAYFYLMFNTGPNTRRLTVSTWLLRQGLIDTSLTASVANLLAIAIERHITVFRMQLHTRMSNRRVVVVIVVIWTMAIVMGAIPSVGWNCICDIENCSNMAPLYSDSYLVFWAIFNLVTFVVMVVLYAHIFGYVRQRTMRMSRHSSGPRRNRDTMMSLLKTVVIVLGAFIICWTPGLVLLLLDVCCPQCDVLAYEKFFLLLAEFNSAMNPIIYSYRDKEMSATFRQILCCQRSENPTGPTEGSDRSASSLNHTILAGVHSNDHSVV
Method: All data were analyzed using GraphPad Prism 9.4 (La Jolla, CA, United States). Concentration–response curves were fitted using the four-parameter log-logistic equation. Data are expressed in the form mean ± s.e.m. across n experiments performed in duplicate. Agonist potency is expressed in the form pEC50, which is the negative logarithm to base 10 of the agonist molar concentration that produces 50% of the maximal possible effect of that agonist. […] In practice, equiactive concentrations of the agonist in the absence ([A]) and presence ([A’]) of a non-competitive antagonist ([B]) were compared in a double reciprocal plot describing a straight line, and pKB was derived from the equation: pKB = log[(slope—1)/[B]]. […] Maximal effect data were analyzed using the Student’s t-test or a one-way ANOVA followed by Dunnett’s post-hoc test.
Data set [6] addresses T2, human LPA1 receptor. The data set is described as follows: Calcium mobilization assay in CHOLPA1 cells. Particulars: for Effect per se: 1 µM, data not shown; for Shift of the concentration–response curve to LPA: antagonism protocol (compound 35, compound 20 at 1 µM).
For the next data set, the target named is LPA2 receptor. More on the design: method as in Beck et al., 2008. Particulars: ref Beck et al., 2008, cited from earlier work.
On the set-up of data set [7]: method as in Allanore et al., 2018. As to conditions: phase II, diffuse cutaneous systemic sclerosis; ref Allanore et al., 2018; cited from earlier work.
In a further data set the target is LPA1 receptor. As to conditions: 2017, cited from earlier work.
The test system of data set [8] is CHO wild-type cells. Description: Calcium mobilization assay in CHO wild-type cells (control). In kind it is cell-based. Particulars: micromolar concentration. On the procedure: Cells were seeded at a density of 50,000 cells/well in 100 μL into black, clear-bottom 96-well plates. The following day, cells were incubated with medium supplemented with 2.5 mM probenecid, 3 μM of the calcium-sensitive fluorescent dye Fluo-4 AM, and 0.01% pluronic acid for 30 min at 37°C. After the incubation period, the loading solution was aspirated, and 100 μL of HBSS supplemented with 20 mM HEPES, 2.5 mM probenecid, and 500 μM Brilliant Black was added. Serial dilutions of compounds were carried out in HBSS/HEPES (20 mM) buffer containing 0.01% BSA. Cell culture and drug plates were placed into a fluorimetric imaging plate reader (FlexStation II, Molecular Devices, Sunnyvale, CA), and fluorescence changes were measured. Online additions were carried out with a volume of 50 μL/well. […] To facilitate drug diffusion into the wells, the experiments were performed at 37°C, and three cycles of mixing (25 μL from each well moved up and down three times) were performed immediately after injection of antagonists into the wells. Agonist effects were expressed in the form of maximum percentage change over baseline fluorescence. Baseline fluorescence was measured in wells treated with vehicle.

Where [9] appears, read: negative DMR signal (inverse agonism), peak, up to 10 µM (compound 35 up to 1 µM), °inactive at 10 μM.
[10] abbreviates: CHOLPA1, calcium mobilization, *inactive at 0.1 µM.
The mark [11] stands for this setting: CHOLPA1, DMR, peak, up to 10 µM (compound 35 up to 1 µM), °inactive at 10 μM.
[12] abbreviates: CHOLPA1, calcium mobilization, #inactive at 1 μM.

The structures appear in SMILES notation. Entries after “also recorded” stand apart in the source; their conditions may differ. Read-outs that look alike come from different tables or passages of the source.

Broadly, the pKB is the negative decadic logarithm of the KB, by convention in mol/L. As a reminder, the EC50 is the midpoint of the concentration-response curve. For `Cc1noc(-c2ccc(-c3ccc(C4(C(=O)O)CC4)cc3)cc2)c1NC(=O)O[C@H](C)c1ccccc1` [BMS-986020], the “DMR effect per se” value on human LPA2 receptor [1] is “inactive per se, or slightly active only at the higher concentration tested”. The “Agonism Emax” value at human LPA2 receptor [1] is given as “Crc incomplete”; at human LPA2 receptor [3], “Inactive^#”; on human LPA1 receptor [6] (setting [10]), “Inactive*”. The “Agonism pEC50” value on human LPA2 receptor [1] is “Crc incomplete”; on human LPA2 receptor [3], “Inactive^#”; on human LPA1 receptor [6] (setting [10]), “Inactive*”. In addition, the DMR response is given as −79 ± 18 pm on human LPA2 receptor [1] (compound 10 μM, mean ± s.e.m.); −39 ± 17 pm in the data set with CHO wild-type cells [4] (compound 10 μM, mean ± s.e.m.); −134 ± 28 pm on human LPA1 receptor [5] (compound 10 μM, mean ± s.e.m.). Also, the “Rate of decline in forced vital capacity” value in data set [2] (compared with placebo) is given as “slower rate of decline in forced vital capacity”. For the same compound, the Cholecystitis entry in data set [2] (study interrupted) is given as “three cases of cholecystitis”. Further, the Hepatic enzymes entry in data set [2] (study interrupted) is reported as “elevation in hepatic enzymes”. Besides, the Effect per se result on human LPA2 receptor [3] is on record as “did not produce any effect per se”; at human LPA1 receptor [6] (CHOLPA1, calcium mobilization), “did not produce any effect per se”. Besides, the “Shift of the concentration–response curve to LPA” value (“Shift” below) was “shifted the concentration–response curve to LPA to the right” on human LPA2 receptor [3]; “shifted the concentration–response curve to LPA to the right” on human LPA1 receptor [5] (CHOLPA1, DMR, 1 µM); “shifted the concentration–response curve to LPA to the right” at human LPA1 receptor [6] (CHOLPA1, calcium mobilization). The negative logarithm of the KB (pKB) with LPA1 was about 8. Moreover, the Kb on human LPA1 receptor [5] is 79.4 nM. For the same compound, a half-maximal effect at human LPA1 receptor [5] (setting [9]) (EC50) was put at 87.1 nM. Also, the “Effect on LPA maximal effect” value was “produced a reduction in LPA maximal effect; also recorded: slight but statistically significant reduction in LPA maximal effect” at human LPA1 receptor [5] (CHOLPA1, DMR, tested as antagonist, 1 µM) and “produced a reduction in LPA maximal effect” at human LPA1 receptor [6] (CHOLPA1, calcium mobilization, tested as antagonist).

For the compound `Cc1noc(-c2ccc(O[C@H]3CC[C@@H](C(=O)O)CC3)cc2)c1NC(=O)O[C@H](C)c1ccccc1Cl` [Compound CHI], the “Shift” value was “did not shift the concentration–response curve to LPA” at human LPA2 receptor [1]; “did not shift the concentration–response curve to LPA” on human LPA2 receptor [3]; “active as an LPA1 antagonist only in calcium mobilization experiments” on human LPA1 receptor [5] (CHOLPA1, DMR, 1 µM). The “DMR effect per se” value on human LPA2 receptor [1] was “inactive”; with CHO wild-type cells [4] (CHO wild-type cells, 10 µM), “inactive”. The DMR response at human LPA2 receptor [1] (compound 10 μM, mean ± s.e.m.) is −55 ± 19 pm; with CHO wild-type cells [4] (compound 10 μM, mean ± s.e.m.), −4 ± 22 pm; on human LPA1 receptor [5] (compound 10 μM, mean ± s.e.m.), −78 ± 18 pm. The Effect per se result at human LPA2 receptor [3] is “inactive”; at human LPA1 receptor [6] (CHOLPA1, calcium mobilization), “inactive”. On human LPA1 receptor [5] (setting [9]), this compound showed an EC50 of 309 nM. Also, the “Agonism Emax” value at human LPA1 receptor [5] (setting [11]) is −68 ± 13 pm. Besides, the Kb at human LPA1 receptor [6] (pKB, CHOLPA1, calcium mobilization, Gaddum method, 1 µM antagonist) is 57.5 nM.

As to `Nc1ncnc2c1ncn2[C@@H]1O[C@H](COP(=O)(O)OP(=O)(O)OP(=O)(O)O)[C@@H](O)[C@H]1O` [ATP], the DMR response on human LPA2 receptor [1] (ATP 100 μM) was found to be 96 ± 13 pm; with CHO wild-type cells [4] (ATP 100 μM) it was 156 ± 11 pm; at human LPA1 receptor [5] (ATP 100 μM) it was 84 ± 6 pm.

In general, pIC50 refers to the IC50 on a negative log10 scale, so that one unit is a factor of ten. On to `Cc1csc2c(N[C@@H](C)CN3CCN(S(=O)(=O)c4ccc(Cl)c(Cl)c4)CC3)ncnc12` [Compound 35], for which the “Shift” value on human LPA2 receptor [1] is given as “shifted the concentration–response curve to LPA to the right”; at human LPA2 receptor [3], “shifted the concentration–response curve to LPA to the right”; on human LPA1 receptor [5] (CHOLPA1, DMR, 1 µM) it was “did not shift the concentration–response curve to LPA to the right”; at human LPA1 receptor [6] (CHOLPA1, calcium mobilization), “did not shift the concentration–response curve to LPA to the right”. Further, the “DMR effect per se” value at human LPA2 receptor [1] is “inactive per se, or slightly active only at the higher concentration tested”; on human LPA1 receptor [5] (CHOLPA1, DMR, up to highest concentration tested (10 μM; compound 35 1 µM)) it was “only a slight negative signal at the highest concentration tested”. For the same compound, the “Agonism Emax” value on human LPA2 receptor [1] is “Crc incomplete”; on human LPA2 receptor [3] it was “Inactive^#”; on human LPA1 receptor [5] (setting [11]), “Crc incomplete”; at human LPA1 receptor [6] (setting [12]), “Inactive^#”. The “Agonism pEC50” value on human LPA2 receptor [1] was “Crc incomplete”; on human LPA2 receptor [3] it was “Inactive^#”; at human LPA1 receptor [5] (CHOLPA1, DMR, negative DMR signal (inverse agonism), peak, up to 10 µM (compound 35 up to 1 µM), °inactive at 10 μM) it was “Crc incomplete”; on human LPA1 receptor [6] (setting [12]), “Inactive^#”. The DMR response is −88 ± 6 pm at human LPA2 receptor [1] (compound 35 1 μM), −27 ± 13 pm in the data set on CHO wild-type cells [4] (compound 35 1 μM) and −101 ± 10 pm on human LPA1 receptor [5] (compound 35 1 μM). In addition, the Effect per se entry was “did not produce any effect per se” at human LPA2 receptor [3] and “did not produce any effect per se” at human LPA1 receptor [6] (CHOLPA1, calcium mobilization). Further, the pIC50 at LPA2 receptor (inhibition of stimulant activity of LPA on Ca2+ mobilization, LPA2-transfected cells) is 7.77. The “Selectivity for LPA2 vs. LPA1 and LPA3 receptors” value in the data set with LPA2 receptor is recorded as “highly selective”. For the same compound, at human LPA1 receptor [6] (Antagonism pKB/pA2, CHOLPA1, calcium mobilization, LPA curve in absence and presence of 1 µM compound), the Kb is over 1000 nM.

On to `COc1ccc(C(=O)NC2(C(=O)O)Cc3ccccc3C2)cc1OCCc1cccc(C)c1` [SAR-100842], for which, in [7], the “Improvement in the modified Rodnan skin thickness score” value is given as “not statistically significant” and the Tolerability result was “well-tolerated”.

Usually pEC50 stands for −log10 of the EC50, conventionally taken in molar units. Consider `CCCCCCCC/C=C\CCCCCCCC(=O)OC[C@@H](O)COP(=O)([O-])O.[Na+]` [LPA, Oleoyl-L-α-lysophosphatidic acid sodium salt], for which the negative logarithm of the EC50 (pEC50) on LPA1 receptor (native LPA1 receptor, ref Sattikar et al.) is given as about 7.5; at LPA1 receptor (recombinant LPA1 receptor, ref Swaney et al., 2011, Shimizu and Nakayama), about 7.5. In addition, the “Effect in CHO wild-type cells” value in the data set on CHO wild-type cells [4] (DMR, micromolar concentration) was “elicited some stimulant effects”; in the data set on CHO wild-type cells [8], “elicited some stimulant effects”. Moreover, the “pEC50 (stimulant effect of LPA)” value is 7.16 (6.89–7.43) at human LPA1 receptor [5] (CHOLPA1, DMR, peak, LPA 0.01 nM–10 µM) and 7.25 (7.19–7.31) on human LPA1 receptor [6] (CHOLPA1, calcium mobilization, LPA 0.01 nM–10 µM).

Values taken from PMC10682101, “In vitro pharmacological characterization of standard and new lysophosphatidic acid receptor antagonists using dynamic mass redistribution assay” (Frontiers in Pharmacology, 2023).
